Measurements reported in patent publication US11872216B2, “Pharmaceutical formulation comprising cineole and amoxicillin” (priority 2016, dated 2024).

What was measured:
[1] = tested on: three strains of BSBL Escherichia coli and three strains of BSBL Klebsiella pneumoniae; assay: Microplate microdilution, statements over all six strains tested; format: cell-based
Protocol: The six strains tested in this study are purified clinical isolates identified in the bacteriology laboratory of the Hassan II university teaching hospital center (CHU, Fes, Morocco). Three of the six bacterial strains tested are strains of BSBL Escherichia coli (P956, P933 and P7847) and the other three bacterial strains tested are strains of BSBL Klebsiella pneumoniae (H1878, H2001 and H1893).
For each test performed, precultures of the bacterial strains (frozen beforehand at −20° C.) for 24 h at 37° C. were prepared. From these precultures, bacterial inocula containing 2×10^7 CFU (colony-forming units)/ml were prepared, adjusting the optical density to 540 nm.
Amoxicillin (AMX) and cineole were supplied by Sigma Aldrich (France). A stock solution of AMX (400 μg/ml) was prepared after dissolving 40 mg of antibiotic in 100 ml of sterile distilled water. From this stock solution, serial dilutions were performed. The cineole concentrations used were prepared by emulsifying pure cineole in 0.2% (v/v) of agar-agar according to the method described by Remmal A et al. (J. Essent. Oil. Res [Book], 1993, 5: pages 1179-1184).
The partial inhibitory concentrations (PIC) are the concentrations of antibacterial agents which inhibit the growth of a given percentage (90%, 75%, 50%, 40% . . . ) of the bacterial population studied. The PICs of AMX and cineole with respect to the six bacterial strains used were determined via a microplate microdilution technique based on the monitoring of the bacterial growth by measuring the optical density (Casey J. T. et al., J. Microbiol. Meth [Book], 2004, 58: pages 327-334; Patton T et al., J. Microbiol. Meth [Book], 2006, 64: pages 84-95).
96-well U-shaped sterile microplates with a capacity of 200 μl were used. […]
For AMX and cineole, two rows were prepared containing 100 μl of MH liquid medium, 50 μl of the bacteria inoculum at 2×10^7 CFU/ml and 50 μl of decreasing concentrations of antimicrobial agents. […] The optical densities (OD) were determined at 540 nm using a microplate spectrophotometer (Versamax, Molecular Devices, USA). The OD was measured at time t=0 and after 22 hours of incubation at 30° C. The percentage of inhibition of the antimicrobial agents with respect to each of the six strains was calculated according to Casey J. T. et al. (J. Microbiol. Meth. [Book], 2004, 58: pages 327-334) according to the following formula: […]
After having determined the PICs of AMX and cineole alone, the antibacterial power of the combination of AMX and cineole was evaluated. […]
The fractional inhibitory concentration index (FIC-index) expressing the degree of synergism of the AMX-cineole combination was calculated according to the following formula (Odds F. C. et al., J. Antimicrob. Chemoth. [Book], 2003, 52: page 1). […]

[2] = tested on: amoxicillin-sensitive bacterial strain of Escherichia coli (ATCC 8739); assay: Enzymatic test in liquid medium (growth inhibition with or without β-lactamase and cineole); format: cell-based; conditions: for % inhibition of growth: AMX 6 μg/ml, cineole 0.002 μl/ml, β-lactamase 0.03 U/ml where present, 22 hours at 30° C.
Protocol: This study is based on an enzymatic test first placing AMX combined with cineole in contact with ß-lactamases. The antibacterial activity of this antibiotic was then checked on an AMX-sensitive strain of Escherichia coli.
An amoxicillin-sensitive bacterial strain of Escherichia coli (ATCC 8739) was supplied by the national hygiene institute (INH-Rabat).
For each test performed, precultures of this E. coli strain of 24 h at 37° C. were prepared from this bacterial strain (frozen beforehand at −20° C.). From these precultures, bacterial inocula of 3.3×10^6 CFU/ml were prepared, adjusting the optical density to 540 nm.
The ß-lactamase powder was supplied by Sigma Aldrich (France). It was dissolved according to the supplier's instructions, at 10 mg/ml in 0.1 M of Tris HCl at pH 7, containing 0.1% of gelatin. The ß-lactamase (0.03 U/ml) thus prepared was stored between 2 and 8° C.
The MIC of AMX at 100% with respect to the sensitive strain of Escherichia coli, determined via the microdilution method described previously, is of the order of 6 μg/ml.
Starting with a 24 h preculture of the sensitive strain of E. coli, bacterial inocula at 3.3×10^6 CFU/ml were prepared, adjusting the optical density to 540 nm.
Five control tubes and one test tube were prepared as described in table 6 (cf. below).
Tube no 1 corresponds to the sterility control of the medium. Tube no 2 corresponds to the positive control of viability of the bacterial strain. Tube no 3 corresponds to the control of sensitivity of the strain to AMX. Tube no 4 corresponds to the control of non-inhibition of bacterial growth with an infra-inhibitory concentration of cineole. Tube no 5 corresponds to the control of degradation of AMX in the presence of ß-lactamase. Tube no 6 corresponds to the test of the effect of cineole on amoxicillin inhibition by the β-lactamases.
The OD was measured at time t=0, and after 22 hours of incubation at 30° C. The percentage of inhibition was then calculated according to the formula described previously:
With ODT0=OD of the test tube at time t=0, ODT22=OD of the test tube after 22 h of incubation, ODC0=OD of the positive control tube at time t=0, ODC22=OD of the positive control tube after 22 h of incubation.

| SMILES | 40% PIC of cineole ([1]; span over all strains tested) | MICs of cineole ([1]; three strains of E. coli and three strains of K. pneumoniae) [μl/ml] | % inhibition of growth [2] | % inhibition of growth ([2]; listed as Cineole) | IC50 ([1]; span over all strains tested, read-out: 50% PIC of AMX) [µg/mL] | MIC ([1]; three strains of E. coli and three strains of K. pneumoniae, read-out: minimum inhibitory concentrations (MIC, 100% inhibition) of AMX) [µg/mL] | MIC ([2]; ATCC8739, sensitive strain of Escherichia coli, microdilution, read-out: MIC of AMX at 100%) [µg/mL] |
| --- | --- | --- | --- | --- | --- | --- | --- |
| CC12CCC(CC1)C(C)(C)O2 [cineole, 1,8-cineole] | 6.2-7.1 μl/ml | ~100 | no growth inhibition | 0% ± 0.0 | – | – | – |
| CC1(C)S[C@@H]2[C@H](NC(=O)[C@H](N)c3ccc(O)cc3)C(=O)N2[C@H]1C(=O)O [amoxicillin, Amoxicillin] | – | – | 100% ± 0.0 | – | 1.1 to 1.7 | ~50 | ~6 |
